Biological target: Acrosin (Homo sapiens, UniProt P10323)
Test: Inhibition of acrosin activity in human spermatozoa using N-alpha-benzoyl-DL-arginine para-nitroanilide-HCI as a substrate after 3 hrs by spectrophotometric analysis

Acrosin, sequence (P10323 20-42 limits assumed): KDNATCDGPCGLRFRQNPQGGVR
Acrosin, sequence (P10323 43-343 limits assumed): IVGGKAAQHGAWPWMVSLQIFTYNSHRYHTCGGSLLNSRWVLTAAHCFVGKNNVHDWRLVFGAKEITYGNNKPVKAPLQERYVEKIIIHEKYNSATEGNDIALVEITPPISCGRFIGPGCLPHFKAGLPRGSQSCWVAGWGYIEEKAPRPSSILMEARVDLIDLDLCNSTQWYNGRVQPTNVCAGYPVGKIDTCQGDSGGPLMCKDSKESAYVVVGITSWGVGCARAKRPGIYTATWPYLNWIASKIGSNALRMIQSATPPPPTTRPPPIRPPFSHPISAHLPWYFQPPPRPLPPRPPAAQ

| SMILES | IC50 |
| --- | --- |
| COc1ccc(C(=O)Nc2ccc(S(=O)(=O)N=C(N)N)cc2)cc1 | 2.21 mM |
| Cc1ccc(C(=O)Nc2ccc(S(=O)(=O)N=C(N)N)cc2)cc1 | 2.06 mM |
| NC(N)=NS(=O)(=O)c1ccc(NC(=O)c2ccccc2Cl)cc1 | 6.3 mM |
| NC(N)=NS(=O)(=O)c1ccc(NC(=O)c2cccc(Cl)c2)cc1 | 7 mM |
| NC(N)=NS(=O)(=O)c1ccc(NC(=O)c2ccc(Cl)cc2Cl)cc1 | 5.63 mM |
| NC(N)=NS(=O)(=O)c1ccc(NC(=O)c2c(Cl)cccc2Cl)cc1 | 5.96 mM |
| NC(N)=NS(=O)(=O)c1ccc(NC(=O)c2ccc(Cl)c(Cl)c2)cc1 | 3.8 mM |
| NC(N)=NS(=O)(=O)c1ccc(NC(=O)c2ccccc2Br)cc1 | 7.63 mM |
| NC(N)=NS(=O)(=O)c1ccc(NC(=O)c2ccc(F)cc2)cc1 | 7.11 mM |
| NC(N)=NS(=O)(=O)c1ccc(NC(=O)c2c(F)cccc2F)cc1 | 7.18 mM |
| NC(N)=NS(=O)(=O)c1ccc(NC(=O)c2ccc(CCl)cc2)cc1 | 3.84 mM |
| Cc1cc(C)c(C(=O)Nc2ccc(S(=O)(=O)N=C(N)N)cc2)c(C)c1 | 2.45 mM |
| NC(N)=NS(=O)(=O)c1ccc(NC(=O)c2cccc(C(F)(F)F)c2)cc1 | 7.05 mM |
| NC(N)=NS(=O)(=O)c1ccc(NC(=O)c2cc([N+](=O)[O-])cc([N+](=O)[O-])c2)cc1 | 2.5 mM |
| CCc1ccc(C(=O)Nc2ccc(S(=O)(=O)N=C(N)N)cc2)cc1 | 0.21 mM |
| CCOc1ccc(C(=O)Nc2ccc(S(=O)(=O)N=C(N)N)cc2)cc1 | 0.13 mM |
| CCC(=O)Nc1ccc(S(=O)(=O)N=C(N)N)cc1 | 9 mM |
| CCCC(=O)Nc1ccc(S(=O)(=O)N=C(N)N)cc1 | 9.58 mM |

| SMILES | IC50 |
| --- | --- |
| CCCCC(=O)Nc1ccc(S(=O)(=O)N=C(N)N)cc1 | 1.58 mM |
| NC(N)=NS(=O)(=O)c1ccc(NC(=O)CN2CCCCC2)cc1 | 7.41 mM |
| CC1CCCCN1CC(=O)Nc1ccc(S(=O)(=O)N=C(N)N)cc1 (stereo unspecified) | 9.9 mM |
| CC1CCN(CC(=O)Nc2ccc(S(=O)(=O)N=C(N)N)cc2)CC1 | 4.98 mM |
| COC(=O)C1CCN(CC(=O)Nc2ccc(S(=O)(=O)N=C(N)N)cc2)CC1 | 9.3 mM |
| CCOC(=O)C1CCN(CC(=O)Nc2ccc(S(=O)(=O)N=C(N)N)cc2)CC1 | 2.99 mM |
| CCCOC(=O)C1CCN(CC(=O)Nc2ccc(S(=O)(=O)N=C(N)N)cc2)CC1 | 3.31 mM |
| CC(C)OC(=O)C1CCN(CC(=O)Nc2ccc(S(=O)(=O)N=C(N)N)cc2)CC1 | 2.35 mM |
| CCCCOC(=O)C1CCN(CC(=O)Nc2ccc(S(=O)(=O)N=C(N)N)cc2)CC1 | 9.5 mM |
| CC(C)CCOC(=O)C1CCN(CC(=O)Nc2ccc(S(=O)(=O)N=C(N)N)cc2)CC1 | 2.51 mM |
| NC(N)=NS(=O)(=O)c1ccc(NC(=O)COc2ccccc2)cc1 | 2.3 mM |
| Cc1ccccc1OCC(=O)Nc1ccc(S(=O)(=O)N=C(N)N)cc1 | 9.3 mM |
| Cc1cccc(OCC(=O)Nc2ccc(S(=O)(=O)N=C(N)N)cc2)c1 | 8.92 mM |
| Cc1ccc(OCC(=O)Nc2ccc(S(=O)(=O)N=C(N)N)cc2)cc1 | 8.98 mM |
| NC(N)=NS(=O)(=O)c1ccc(NC(=O)COc2ccc(Cl)cc2)cc1 | 9.35 mM |
| COc1ccc(OCC(=O)Nc2ccc(S(=O)(=O)N=C(N)N)cc2)cc1 | 9.84 mM |
| NC(N)=NS(=O)(=O)c1ccc(NC(=O)COc2ccc([N+](=O)[O-])cc2)cc1 | 4.2 mM |
| COC(=O)c1ccc(OC(=O)c2ccc(NC(=N)N)cc2)cc1.CS(=O)(=O)O | 0.027 mM |

Reference: ChEMBL document CHEMBL1909542, “Synthesis and acrosin inhibitory activity of substituted 4-amino-N-(diaminomethylene) benzenesulfonamide derivatives” (Bioorg Med Chem Lett, 2011)
